This passage reports inhibition and IC50 results from ChEMBL document CHEMBL2010646, “Small molecule inhibitors of the HPV16-E6 interaction with caspase 8” (Bioorg Med Chem Lett, 2012).

Usually IC50 stands for the point on the concentration scale where inhibition reaches its midpoint. The low end stands for inhibition by little substance, the high end for a need for much substance.

SMILES strings stand for the structures. Active and inactive are the calls of the source. The rule behind the calls is not given here.

Assay [1] concerns the target Protein E6 (Human papillomavirus 16) (UniProt P03126). The experiment in a line: Inhibition of GST-tagged Human papillomavirus 16 protein E6 interaction with His-tagged human caspase 8 expressed in Escherichia coli at 20 nM to 20 uM after 1 hr incubation followed by overnight incubation by Alpha screening technique.
Assay [2] deals with Protein E6 (Human papillomavirus 16, UniProt P03126). The experiment in a line: (§1) Inhibition of GST-tagged Human papillomavirus 16 protein E6 interaction with His-tagged human caspase 8 expressed in Escherichia coli after 1 hr incubation followed by overnight incubation by Alpha screening technique.
Sequence of Protein E6 (P03126 whole entry): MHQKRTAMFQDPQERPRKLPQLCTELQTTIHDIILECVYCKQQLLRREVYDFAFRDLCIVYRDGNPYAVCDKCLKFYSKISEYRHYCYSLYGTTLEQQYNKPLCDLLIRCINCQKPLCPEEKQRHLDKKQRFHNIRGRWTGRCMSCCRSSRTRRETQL
Assay [3] addresses Caspase-8 (Homo sapiens) (UniProt Q14790). The experiment in a line: Inhibition of GST-tagged human caspase 8 interaction with His-tagged human caspase 8 expressed in Escherichia coli at 0.1 to 10 uM after 1 hr followed by overnight incubation by bead-based binding assay.
For assay [4], the target named is Protein E6 (Human papillomavirus 16) (UniProt P03126). Described as §1.
Sequence of Protein E6 (Human papillomavirus 16) (P03126 whole entry): as above
Assay [5] has the same target. Description: Inhibition of GST-tagged Human papillomavirus 16 protein E6 interaction with His-tagged human FADD expressed in Escherichia coli after 1 hr incubation followed by overnight incubation by Alpha screening technique.

Sequence of Caspase-8 (Homo sapiens) (Q14790 217-374 limits assumed): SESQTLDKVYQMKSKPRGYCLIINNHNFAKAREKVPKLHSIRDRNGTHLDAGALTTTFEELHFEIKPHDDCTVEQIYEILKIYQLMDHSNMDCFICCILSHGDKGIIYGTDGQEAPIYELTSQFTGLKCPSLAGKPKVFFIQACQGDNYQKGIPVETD
Sequence of Caspase-8 (Homo sapiens) (Q14790 385-479 limits assumed): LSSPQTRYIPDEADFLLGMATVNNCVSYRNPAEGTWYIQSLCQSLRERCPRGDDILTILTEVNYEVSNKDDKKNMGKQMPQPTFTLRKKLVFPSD

On to `O=c1cc(-c2ccc(O)cc2)oc2cc(O)cc(O)c12`, for which the inhibition entry in assay [1] is “inactive”.
`CC(C)c1ccc(-c2oc3c(Cl)cc(CC(=O)O)cc3c(=O)c2O)cc1`: the inhibition result in assay [1] was “inactive”.
`COc1cc(-c2oc3cc(O)cc(O)c3c(=O)c2O)ccc1O`: the inhibition result in assay [1] is “inactive”.
For `COc1cc(O)c2c(=O)c(O)c(-c3ccc(O)c(O)c3)oc2c1`, the inhibition entry in assay [1] was “inactive”.
The same measure, in the same setting: the entry for `O=c1c(O)c(-c2ccc(O)c(O)c2)oc2cc(O)ccc12` is “inactive”; for `O=C(O)Cc1cc(Cl)c2oc(-c3ccccc3)c(O)c(=O)c2c1` it is “inactive”; for `COc1cc(-c2oc3cc(O)ccc3c(=O)c2O)ccc1O` it is “inactive”.
As for `O=c1c(O)c(-c2ccc(O)c(O)c2)oc2cc(O)cc(O)c12` [QUERCETIN], the IC50 in assay [2] was > 20 µM.
With `COc1ccc2c(=O)c(O)c(-c3ccccc3)oc2c1`, in assay [1], the inhibition result is “inactive”.
On to `O=c1c(O)c(-c2ccccc2)oc2ccc(O)cc12`, for which the inhibition entry in assay [1] and in assay [3] was “inactive” throughout.
Consider `O=c1c(O)c(-c2ccccc2)oc2ccccc12`, for which the inhibition entry in assay [1] was “inactive”.
As to `O=c1c(O)c(-c2ccccc2)oc2cc(O)cc(O)c12`, the inhibition entry in assay [1] is “Active”.
Regarding `O=c1c(O)c(-c2cc(O)c(O)c(O)c2)oc2cc(O)cc(O)c12` [MYRICETIN], inhibition in assay [2] was half-maximal at 0.85 µM (IC50). For the same molecule, the inhibition result in assay [3] is “inactive”.
Turning to `O=C(O)Cc1cc(Cl)c2oc(-c3ccc(Cl)cc3)c(O)c(=O)c2c1`, in assay [1], the inhibition entry is “inactive”.
For `O=c1c(O)c(-c2ccccc2)oc2cc(O)ccc12`, in assay [1], the inhibition entry is “inactive”.
Consider `O=c1c(O)c(-c2ccc(O)cc2)oc2cc(O)cc(O)c12` [KAEMPFEROL], for which the inhibition entry in assay [4] and in assay [5] was “Dose-dependent effect” each time. In assay [2], the IC50 was > 20 µM.
In assay [2], `O=c1c(O)c(-c2ccc(O)cc2O)oc2cc(O)cc(O)c12` [MORIN] gave an IC50 of 4 µM. Also, the inhibition entry in assay [3] was “inactive”.
In the case of `O=c1cc(-c2ccccc2)oc2ccccc12`, the inhibition result in assay [1] was “inactive”.
With `O=c1c(O)c(-c2ccccc2O)oc2cc(O)cc(O)c12`, the inhibition entry in assay [1] was “inactive”.
